Measured values reported in PMC7796304, “Nephrotoxic Potential of Putative 3,5-Dichloroaniline (3,5-DCA) Metabolites and Biotransformation of 3,5-DCA in Isolated Kidney Cells from Fischer 344 Rats” (International Journal of Molecular Sciences, 2020).

Experiments:
[1] = test system: isolated kidney cells (IKC); assay: 3,5-DCA metabolism by IKC, HPLC of media and cells; settings: for free aminochlorophenol after arylsulfatase or β-glucuronidase treatment of media or cell lysates: 45 or 90 min
Protocol: At the end of the incubation period, 1.0 mL samples were collected, and media and cells separated by centrifugation. The pelleted cells were washed with KH buffer (no bovine serum albumin), and the rinse was added to the media. Cells were lysed via sonication and protein was precipitated by methanol (1.0 mL) addition to all samples. Samples were centrifuged (3000 g; 10 min, 4 °C) and the supernatant filtered through a 0.45 µ syringe filter and stored at −20 °C until analyzed by HPLC as described below.
To determine if sulfate or glucuronide conjugates were formed, in some experiments, media and cell supernatant fractions obtained as described above were treated with β-glucuronidase (6500 units/mL, final concentration) or arylsulfatase (200 units/mL, final concentration) + saccaharolactone (20 mM, final concentration) for 18 h (37 °C) in 0.1 M acetate buffer (pH 5.0) to hydrolyze any glucuronide or sulfate conjugates, respectively, that were formed [26]. Hydrolysis was stopped by the addition of cold methanol (2.4 mL). The fractions were then filtered and stored until analyzed as described above.
Chromatograms were collected and integrated using Empower 3 software (Waters Co., Milford, MA, USA). A Waters X Select HSS T3 C18 column (3.5 µm; 4.6 × 150 mm^2) fitted with a Waters XSelect HSS T3 VanGuard Cartridge (3.5 µm; 3.9 × 5 mm^2) was used for separation of compounds. The mobile phase consisted of 50:50 methanol:water with a flow rate of 0.75 mL/min. Standard curves, limits of detection, and extraction coefficients were determined for 3,5-DCA and putative metabolites. Extraction coefficients were determined by comparing the integration of a 1.0 mM 3,5-DCA or a metabolite sample that had undergone sample processing (i.e., the addition of methanol and centrifugation) to that of a unprocessed 1.0 mM 3,5-DCA or metabolite sample.

[2] = test system: isolated kidney cells (IKC); assay: Effect of DEDTCA pretreatment on 3,5-DCA metabolism in IKC; settings: 90 min; for detection as 3,5-DCA metabolite in media and cells: DEDTCA experiment; for detection as 3,5-DCA metabolite in media and cells / Percent of Dose, Cells / Percent of Dose, Media: 3,5-DCA 1.0 mM; for Percent of Dose, Cells / Percent of Dose, Media: N = 4, mean ± SE
Protocol: In a separate experiment, cells were pretreated with diethyldithiocarbamic acid (DEDTCA, 0.1 mM, 30 min pretreatment), a CYP2C inhibitor, before 3,5-DCA addition to determine which metabolites were decreased with DEDTCA pretreatment. Following the 90 min incubation period, cells and media were treated and stored as described above for the determination of 3,5-DCA concentrations and the concentrations of 3,5-DCA metabolites formed.
Samples (75 µL) of media and lysed IKC were analyzed on a Waters Alliance e2695 HPLC system (Waters Co., Milford, MA, USA), utilizing a Waters 2489 variable UV/Vis detector at 254 nM. Chromatograms were collected and integrated using Empower 3 software (Waters Co., Milford, MA, USA). A Waters X Select HSS T3 C18 column (3.5 µm; 4.6 × 150 mm^2) fitted with a Waters XSelect HSS T3 VanGuard Cartridge (3.5 µm; 3.9 × 5 mm^2) was used for separation of compounds. The mobile phase consisted of 50:50 methanol:water with a flow rate of 0.75 mL/min. Standard curves, limits of detection, and extraction coefficients were determined for 3,5-DCA and putative metabolites. Extraction coefficients were determined by comparing the integration of a 1.0 mM 3,5-DCA or a metabolite sample that had undergone sample processing (i.e., the addition of methanol and centrifugation) to that of a unprocessed 1.0 mM 3,5-DCA or metabolite sample.

[3] = test system: isolated kidney cells (IKC); assay: LDH release cytotoxicity, time and concentration course, in isolated kidney cells; settings: for LDH release (marker of cytotoxicity) / nephrotoxic potential among the metabolites tested: 0-1.5 mM; for LDH release (marker of cytotoxicity): 60 or 90 min; for nephrotoxic potential among the metabolites tested: up to 90 min
[4] = test system: isolated kidney cells (IKC); design: method as in PMID 26808022; settings: 90 min exposure; cited from earlier work
[5] = design: method as in PMID 26808022; settings: calculated, Fischer 344 rat; cited from earlier work
kidney = settings: cited from earlier work
[6] = test system: isolated kidney cells (IKC); design: method as in PMID 26808022; settings: cited from earlier work
renal cortical slices = settings: cited from earlier work
[7] = test system: rat renal cortical slices; design: method as in PMID 18243470; settings: 2 h exposure; cited from earlier work
[8] = test system: rat renal cortical slices; design: method as in PMID 8023337; settings: cited from earlier work
[9] = test system: isolated kidney cells (IKC); design: method as in PMID 26808022; settings: cited from earlier work; remark: listed apart in the source
[10] = test system: isolated kidney cells (IKC); assay: Pretreatment with antioxidants or enzyme inhibitors before 3,5-DCNB, LDH release in IKC; settings: 1.0 mM 3,5-DCNB, 60 min, pretreatment concentrations per Table 4
[11] = test system: isolated kidney cells (IKC); settings: 0.5 mM 3,5-DCPHA, 60 min, pretreatment concentrations per Table 4
[12] = IKC incubated with 1.0 mM 3,5-DCA
[13] = IKC incubated with 0.5 mM 3,5-DCA, 90 min, N = 3, mean ± SE
[14] = IKC incubated with 1.0 mM 3,5-DCA, 90 min, N = 4, mean ± SE
[15] = +DEDTCA (0.1 mM, 30 min pretreatment)

Structure (SMILES): Nc1cc(Cl)cc(Cl)c1O [2-A-4,6-DCP, 2-amino-4,6-dichlorophenol]
- free aminochlorophenol after arylsulfatase or β-glucuronidase treatment of media or cell lysates [1, 12]: did not reveal any free 2-A-4,6-DCP or 4-A-2,6-DCP
- detection as 3,5-DCA metabolite in media and cells [2]: no 2-A-4,6-DCP, 4-A-2,6-DCP or 3,5-DCPHA detected
- LDH release (marker of cytotoxicity) [3]: did not result in significant increases in LDH release
- nephrotoxic potential among the metabolites tested [3]: not cytotoxic

Structure (SMILES): Nc1cc(Cl)cc(Cl)c1 [3,5-DCA, 3,5-dichloroaniline]
- Percentage of Dose, Cells [1, 13]: 6.82 ± 3.33%
- Percentage of Dose, Media [1, 13]: 89.31 ± 6.32%
- Percentage of Dose, Cells [1, 14]: 13.19 ± 2.12%
- Percentage of Dose, Media [1, 14]: 87.13 ± 4.56%
- fraction of 3,5-DCA metabolized to 3,5-DCAA and 3,5-DCNB ([1]; IKC, 0.5 or 1.0 mM, 90 min): Less than 5%
- Percent of Dose, Cells [2, 15]: 14.67 ± 1.78%
- Percent of Dose, Media [2, 15]: 91.14 ± 3.04%
- Percent of Dose, Cells ([2]; −DEDTCA): 16.01 ± 2.02%
- Percent of Dose, Media ([2]; −DEDTCA): 89.43 ± 5.66%
- concentration leading to increased LDH release [4]: ≥ 1000 µM
- maximum blood level from a nephrotoxic dose [5]: ~ 1.25 mM
- renal effects of in vivo exposure (kidney; Sprague–Dawley or Fischer 344 rats): elevated blood urea nitrogen (BUN) concentration, decreased organic ion transport in proximal tubular cells, decreased kidney weight, proteinuria, and hematuria
- concentration that induces cytotoxicity (increased LDH release) ([3]; 90 min): 1000 µM
- non-cytotoxic concentration ([3]; 90 min): 0.5 mM
- reduced and total glutathione levels [6]: both reduced

Structure (SMILES): CC(=O)Nc1cc(Cl)cc(Cl)c1 [3,5-DCAA, 3,5-dichloroacetanilide]
- Percentage of Dose, Cells [1, 13]: 0.07 ^ %
- Percentage of Dose, Media [1, 13]: 1.86 ± 0.42%
- Percentage of Dose, Media [1, 14]: 0.56 ± 0.07%
- Percent of Dose, Media [2, 15]: 0.30 ± 0.05%
- Percent of Dose, Cells ([2]; −DEDTCA): 0.02 ^ %
- Percent of Dose, Media ([2]; −DEDTCA): 0.50 ± 0.03%
- LDH release (marker of cytotoxicity) [3]: did not significantly increase LDH release
- nephrotoxic potential among the metabolites tested [3]: not cytotoxic

Structure (SMILES): O=[N+]([O-])c1cc(Cl)cc(Cl)c1 [3,5-DCNB, 3,5-dichloronitrobenzene]
- Percentage of Dose, Cells [1, 13]: 0.41 ^ %
- Percentage of Dose, Media [1, 13]: 2.80 ^ %
- Percentage of Dose, Cells [1, 14]: 0.34 ± 0.19 %
- Percentage of Dose, Media [1, 14]: 1.18 ± 0.57 %
- Percent of Dose, Cells [2, 15]: 0.06 ^ %
- Percent of Dose, Media [2, 15]: 0.09 ^ %
- Percent of Dose, Cells ([2]; −DEDTCA): 0.13 ^ %
- Percent of Dose, Media ([2]; −DEDTCA): 0.31 ± 0.19 %
- nephrotoxic potential among dichloronitrobenzenes (renal cortical slices): least potent nephrotoxicant among the dichloronitrobenzenes
- nephrotoxic potential among the metabolites tested [3]: intermediate in nephrotoxic potential
- concentration giving significant increase in LDH release ([3]; 90 min exposure): ≥ 1000 µM

Structure (SMILES): ONc1cc(Cl)cc(Cl)c1 [3,5-DCPHA]
- detection as 3,5-DCA metabolite in media and cells [2]: no 2-A-4,6-DCP, 4-A-2,6-DCP or 3,5-DCPHA detected
- nephrotoxic potential among the metabolites tested [3]: most potent nephrotoxicant
- concentration giving significant increase in LDH release ([3]; 60 min exposure): ≥ 250 µM
- concentration giving significant increase in LDH release ([3]; 90 min exposure): ≥ 250 µM

Structure (SMILES): Nc1cc(Cl)c(O)c(Cl)c1 [4-A-2,6-DCP, 4-amino-2,6-dichlorophenol]
- free aminochlorophenol after arylsulfatase or β-glucuronidase treatment of media or cell lysates [1, 12]: did not reveal any free 2-A-4,6-DCP or 4-A-2,6-DCP
- concentration increasing LDH release [7]: ≥ 50 µM
- detection as 3,5-DCA metabolite in media and cells [2]: no 2-A-4,6-DCP, 4-A-2,6-DCP or 3,5-DCPHA detected
- concentration reducing uptake of p-aminohippurate (PAH) [8]: 5 µM
- concentration reducing uptake of tetraethylammonium (TEA) [8]: 50 µM
- nephrotoxicity in vivo (kidney; male Fischer 344 rats, 0.38 mmol/kg, i.p.): marked nephrotoxicity
- concentration required to increase LDH release ([3]; 90 min exposure, albumin in medium, no reference given): ≥ 250 µM

Structure (SMILES): CCN(CC)C(=S)S [DEDTCA, diethyldithiocarbamic acid, reference compound]
- effect of inhibitor pretreatment on 3,5-DCA cytotoxicity [9]: markedly reduced 3,5-DCA cytotoxicity
- effect of pretreatment on 3,5-DCA metabolite formation ([2]; DEDTCA 0.1 mM, then 3,5-DCA 1.0 mM): formation of 3,5-DCAA and 3,5-DCNB were reduced

Structure (SMILES): COc1ccc2c(c1)c(CC(=O)O)c(C)n2C(=O)c1ccc(Cl)cc1 [Indomethacin]
- effect of pretreatment on 3,5-DCNB-induced cytotoxicity (LDH release) [10]: tended to reduce 3,5-DCNB-induced LDH release but did not reach a significant difference

Structure (SMILES): CC(=O)N[C@@H](CS)C(=O)O [N-acetyl-L-cysteine]
- effect of pretreatment on 3,5-DCNB-induced cytotoxicity (LDH release) [10]: significantly attenuated
- effect of pretreatment on 3,5-DCPHA-induced cytotoxicity (LDH release) [11]: partially attenuated

Structure (SMILES): O=C1O[C@H]([C@@H](O)CO)C(O)=C1O [ascorbate]
- effect of pretreatment on 3,5-DCNB-induced cytotoxicity (LDH release) [10]: significantly attenuated
- effect of pretreatment on 3,5-DCPHA-induced cytotoxicity (LDH release) [11]: not effective at reducing 3,5-DCPHA cytotoxicity

Structure (SMILES): N[C@@H](CCC(=O)N[C@@H](CS)C(=O)NCC(=O)O)C(=O)O [glutathione]
- effect of pretreatment on 3,5-DCNB-induced cytotoxicity (LDH release) [10]: significantly attenuated
- effect of pretreatment on 3,5-DCPHA-induced cytotoxicity (LDH release) [11]: fully protected

Structure (SMILES): NNC(=O)c1ccncc1 [isoniazid]
- effect of inhibitor pretreatment on 3,5-DCA cytotoxicity [9]: had no effect on 3,5-DCA cytotoxicity

Structure (SMILES): O=C(O)CC(S)C(=O)O (stereo not shown) [mercaptosuccinate]
- effect of pretreatment on 3,5-DCNB-induced cytotoxicity (LDH release) [10]: significantly attenuated

Structure (SMILES): CC(C)(C(=O)c1cccnc1)c1cccnc1 [metyrapone]
- effect of pretreatment on 3,5-DCNB-induced cytotoxicity (LDH release) [10]: significantly attenuated

Structure (SMILES): CCCCCCCCN [n-octylamine]
- effect of pretreatment on 3,5-DCNB-induced cytotoxicity (LDH release) [10]: significantly attenuated

Structure (SMILES): CCCCOCCOCCOCc1cc2c(cc1CCC)OCO2 [piperonyl butoxide]
- effect of pretreatment on 3,5-DCNB-induced cytotoxicity (LDH release) [10]: significantly attenuated

Structure (SMILES): Cc1c(C)c2c(c(C)c1O)CC[C@@](C)(CCC[C@H](C)CCC[C@H](C)CCCC(C)C)O2 [α-tocopherol]
- effect of pretreatment on 3,5-DCNB-induced cytotoxicity (LDH release) [10]: significantly attenuated
